In PMC6629785, “Synthesis and Pharmacological Evaluation of a Novel Peptide Based on Anemonia sulcata BDS-I Toxin as a New KV3.4 Inhibitor Exerting a Neuroprotective Effect Against Amyloid-β Peptide” (Frontiers in Chemistry, 2019):

These substances were tested against T1, KV3.4 channels (Homo sapiens, UniProt Q03721) (assay: Whole-cell patch clamp of Kv3.4 currents in CHO cells transiently transfected with Kv3.4/MiRP2). Settings: peptide 100 nM, acute application; CHO cells transfected with Kv3.4/MiRP2; whole-cell patch clamp.
T1 construct: expressed in transfected cells; host or cells: CHO cells, transient transfection with Lipofectamine 2000; cDNAs provided by Professor Goldstein, University of Chicago
T1 sequence (Q03721 1-635): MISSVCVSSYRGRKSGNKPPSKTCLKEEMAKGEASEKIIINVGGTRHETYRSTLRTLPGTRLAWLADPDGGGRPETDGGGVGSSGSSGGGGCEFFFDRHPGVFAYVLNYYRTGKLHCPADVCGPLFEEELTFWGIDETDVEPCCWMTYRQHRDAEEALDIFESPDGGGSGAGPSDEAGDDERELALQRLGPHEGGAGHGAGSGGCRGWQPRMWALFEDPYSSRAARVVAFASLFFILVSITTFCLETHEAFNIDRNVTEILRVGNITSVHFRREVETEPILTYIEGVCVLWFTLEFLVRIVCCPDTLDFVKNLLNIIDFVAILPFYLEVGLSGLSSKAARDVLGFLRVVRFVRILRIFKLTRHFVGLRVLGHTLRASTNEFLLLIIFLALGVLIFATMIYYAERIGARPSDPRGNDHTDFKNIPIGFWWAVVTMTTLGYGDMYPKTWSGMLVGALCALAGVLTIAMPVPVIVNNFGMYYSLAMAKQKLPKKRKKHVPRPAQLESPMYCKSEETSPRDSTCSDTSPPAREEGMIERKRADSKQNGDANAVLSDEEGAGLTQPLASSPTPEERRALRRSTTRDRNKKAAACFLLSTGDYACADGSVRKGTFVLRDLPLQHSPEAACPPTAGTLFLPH
T1 sequence (Q9Y6H6 1-103 partner): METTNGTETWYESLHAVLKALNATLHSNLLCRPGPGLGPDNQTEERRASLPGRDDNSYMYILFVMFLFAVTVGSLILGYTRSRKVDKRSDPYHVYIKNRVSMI
Format: cell-based
Description: KV3.4 and MiRP2 channel subunits were expressed in Chinese hamster ovary (CHO) cells by transient transfection. CHO cells were grown in 100 mm plastic Petri dishes in Dulbecco's Modified Eagle Medium containing 10% fetal bovine serum (FBS), non-essential amino acids (0.1 mm), penicillin (50 U/ml), and streptomycin (50 μg/ml) in a humidified atmosphere at 37°C with 5% CO2 (Miceli et al., [2015]). KV3.4 and MiRP2 cDNAs were kindly provided by the Professor Goldstein of the Department of Pediatrics and Institute for Molecular Pediatric Sciences, University of Chicago, USA. For electrophysiological experiments, cells were seeded on glass cover-slips (Glaswarenfabrik Karl Hecht KG, Sondheim, Germany) coated with poly-L-lysine (50 μg/mL) and transfected the next day with the appropriate cDNAs using Lipofectamine 2000 according to guidelines for transfection. We performed electrophysiological experiments 48 h after transfection.
Currents from CHO cells were recorded at room temperature 1-2 days after transfection. The extracellular solution contained the following (in mM): 138 NaCl, 5.4 KCl, 2 CaCl2, 1 MgCl2, 10 glucose and 10 HEPES, adjusted pH 7.4 with NaOH. The pipette solution contained (in mM) the following: 140 KCl, 2 MgCl2, 10 EGTA, 10 HEPES, 5 Mg-ATP, adjusted pH 7.4 with KOH (Miceli et al., [2015]). KV3.4 currents were measured by applying voltage steps from −100 mV to +60 mV from a holding potential of −80 mV (Abbott et al., [2001]). Moreover, the total outward K^+ currents were recorded in NGF-differentiated PC-12 cells using the extracellular solution contained the following (in mM): 150 NaCl, 5.4 KCl, 3 CaCl2, 1 MgCl2, 10 HEPES, adjusted pH 7.4 with NaOH. The pipette solution contained the following (in mM): 140 KCl, 2 MgCl2, 10 HEPES, 10 glucose, 10 EGTA, and 1 Mg-ATP adjusted at pH 7.4 with KOH (Diochot et al., [1998]). All experiments were performed in the presence of 50 nM tetrodotoxin (TTX) and 10 μ M nimodipine in the extracellular solution. To discriminate K^+ current components appropriate electrophysiological protocols were used (Pannaccione et al., [2007]). Steady-state activation and inactivation properties were measured by using appropriate protocols (Pannaccione et al., [2005]). Capacitive currents were elicited by 5-mV depolarizing pulses from −80 mV and acquired at a sampling rate of 50 kHz. The capacitance of the membrane was calculated according to the following equation: Cm = τc·Io/ΔEm (1-I∞/Io), where Cm is membrane capacitance, τc is the time constant of the membrane capacitance, Io is the maximum capacitance current value, ΔEm is the amplitude of the voltage step, and I∞ is the amplitude of the steady-state current. K^+ currents were recorded by patch-clamp technique in CHO and NGF-differentiated PC-12 cells using a commercially available amplifier (Axopatch 200B, Molecular Devices) and Digidata 1322A interface (Molecular Devices, USA). The whole-cell configuration of the patch-clamp technique was adopted using glass micropipettes with a resistance of 2.5-5.0 MΩ. Data were acquired and analyzed using the pClamp software (version 9, Molecular Devices).
For the acute treatment, each peptide has been added in the extracellular solution. For each cell, we first recorded K^+ currents as previously described, in the absence of peptides. After that, we switched from the extracellular solution without BDS-I peptides to the extracellular solution containing the BDS-I peptide. In these conditions, we recorded K^+ currents until the steady-state was reached. This protocol has been performed to test the effect on KV3.4 currents of each BDS-I fragment as well as of BDS-I[1-8scr].
To identify the smallest BDS-I amino acid sequence able to block Kv3.4 activity, we evaluated the effect of the newly synthesized BDS-I fragments in CHO cells transiently transfected with Kv3.4/MiRP2, by patch clamp technique in whole cell configuration. […]

Substance	ability to inhibit Kv3.4 currents (in words)
H-NIAAYPH-OH [BDS-I[37-43], C-terminal 7-amino-acid fragment of BDS-I]	did not
H-RGTAPGGY-OH [BDS-I[19-26], overlapping 8-amino-acid fragment of BDS-I]	did not
H-GYGYTSNA-OH [BDS-I[25-32], overlapping 8-amino-acid fragment of BDS-I]	did not
H-GDLWILRG-OH [BDS-I[13-20], overlapping 8-amino-acid fragment of BDS-I]	did not
H-SGKPGRGD-OH [BDS-I[7-14], overlapping 8-amino-acid fragment of BDS-I]	did not
H-NAYKWPNI-OH [BDS-I[31-38], overlapping 8-amino-acid fragment of BDS-I]	did not
